How the values were obtained:
human PR-B [1] = target: T1, human PR-B (Homo sapiens, UniProt P06401); assay: Co-transfection assay, PR antagonist activity; type: cell-based; details: for Emax: CV-1, read-out: PR Antagonist CV-1 Cells Efficacy (%);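 for all read-outs here: monkey kidney fibroblasts co-transfected with receptor expression plasmid and hormone-responsive luciferase reporter, antagonism read as reduced luciferase signal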
T1 construct: expressed in transfected cells; host or cells: CV-1 cells (African green monkey kidney fibroblasts), transient transfection
T1 sequence (P06401 1-933): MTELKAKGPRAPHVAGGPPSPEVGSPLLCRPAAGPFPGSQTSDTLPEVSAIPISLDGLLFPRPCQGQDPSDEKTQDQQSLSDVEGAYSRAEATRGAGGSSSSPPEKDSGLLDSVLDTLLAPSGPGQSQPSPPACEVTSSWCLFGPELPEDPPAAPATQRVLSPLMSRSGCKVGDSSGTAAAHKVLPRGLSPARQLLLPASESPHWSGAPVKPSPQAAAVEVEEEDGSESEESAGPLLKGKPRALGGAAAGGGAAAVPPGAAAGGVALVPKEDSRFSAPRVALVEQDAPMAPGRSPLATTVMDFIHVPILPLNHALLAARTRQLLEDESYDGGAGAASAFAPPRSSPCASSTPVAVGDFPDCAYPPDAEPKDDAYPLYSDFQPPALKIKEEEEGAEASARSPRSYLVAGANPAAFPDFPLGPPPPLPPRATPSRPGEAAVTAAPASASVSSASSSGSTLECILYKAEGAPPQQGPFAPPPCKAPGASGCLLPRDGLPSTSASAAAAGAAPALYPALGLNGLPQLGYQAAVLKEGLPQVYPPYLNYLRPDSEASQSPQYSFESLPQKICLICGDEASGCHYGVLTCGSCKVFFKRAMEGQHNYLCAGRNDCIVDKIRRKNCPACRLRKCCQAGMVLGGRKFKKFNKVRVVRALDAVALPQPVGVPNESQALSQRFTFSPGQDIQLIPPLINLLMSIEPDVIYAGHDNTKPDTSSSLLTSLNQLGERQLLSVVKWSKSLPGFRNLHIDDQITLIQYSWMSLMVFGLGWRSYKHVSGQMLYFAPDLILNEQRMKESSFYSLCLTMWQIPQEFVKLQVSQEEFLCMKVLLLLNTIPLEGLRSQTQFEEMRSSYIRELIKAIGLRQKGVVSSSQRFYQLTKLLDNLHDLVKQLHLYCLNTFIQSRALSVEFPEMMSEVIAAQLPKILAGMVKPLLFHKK

human PR-B [2] = target: T1, human PR-B; assay: Co-transfection assay, PR agonist activity; type: cell-based; details: for Emax: CV-1, read-out: PR Agonist CV-1 Cells Efficacy (%);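 for all read-outs here: CV-1 cells (African green monkey kidney) co-transfected with receptor plasmid and hormone-responsive firefly luciferase reporter, agonism read as compound-dependent rise in luciferase signal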
AR = target: T2, AR (Rattus norvegicus, UniProt P15207); assay: Immature castrated male rat model (antiandrogen activity); type: in vivo, rats (Sprague-Dawley); details: administered simultaneously with 0.1 mg of TP
T2 construct: from tissue; host or cells: live Sprague-Dawley rats; ventral prostate and seminal vesicles weighed
T2 sequence (P15207 1-902): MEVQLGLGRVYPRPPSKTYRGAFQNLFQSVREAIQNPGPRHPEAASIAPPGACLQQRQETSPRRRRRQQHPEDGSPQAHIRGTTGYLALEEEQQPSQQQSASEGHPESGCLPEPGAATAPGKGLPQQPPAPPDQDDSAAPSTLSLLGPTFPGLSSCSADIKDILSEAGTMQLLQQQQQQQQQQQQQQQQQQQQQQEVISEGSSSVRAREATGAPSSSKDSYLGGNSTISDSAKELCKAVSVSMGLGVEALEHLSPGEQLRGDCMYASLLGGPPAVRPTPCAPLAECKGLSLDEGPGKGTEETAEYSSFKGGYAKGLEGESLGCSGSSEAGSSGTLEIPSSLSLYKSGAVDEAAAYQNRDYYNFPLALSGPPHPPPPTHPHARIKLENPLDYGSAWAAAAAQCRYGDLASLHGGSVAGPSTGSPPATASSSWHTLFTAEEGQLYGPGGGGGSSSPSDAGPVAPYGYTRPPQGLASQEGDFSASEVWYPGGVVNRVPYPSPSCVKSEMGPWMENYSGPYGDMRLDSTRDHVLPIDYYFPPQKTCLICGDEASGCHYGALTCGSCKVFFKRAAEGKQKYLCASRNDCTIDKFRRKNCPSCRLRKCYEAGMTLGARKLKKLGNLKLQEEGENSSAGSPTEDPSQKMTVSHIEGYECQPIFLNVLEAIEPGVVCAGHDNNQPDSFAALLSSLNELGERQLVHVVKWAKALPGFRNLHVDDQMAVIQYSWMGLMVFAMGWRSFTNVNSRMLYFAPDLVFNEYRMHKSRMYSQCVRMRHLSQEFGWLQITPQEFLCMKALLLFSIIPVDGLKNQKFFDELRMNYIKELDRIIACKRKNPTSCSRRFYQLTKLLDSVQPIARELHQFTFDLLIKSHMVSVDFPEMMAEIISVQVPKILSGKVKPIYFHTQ
Text: Since the male sex organs are the tissues most responsive to modulation of androgen activity, this model is used to determine the androgen-dependent growth of the sex accessory organs in immature castrated rats.
At the end of the 3-day treatment, the animals were sacrificed, and the ventral prostates (VP) and seminal vesicles (SV) were collected and weighed. To compare data from different experiments, the sexual organ weights were first standardized as mg per 100 g of body weight, and the increase in organ weight induced by TP was considered as the maximum increase (100%). Super-anova (one factor) was used for statistical analysis.

SMILES	Emax (human PR-B [1]) [%]	Emax (human PR-B [2]) [%]	further results
CC1=CC(C)(C)Nc2ccc(-c3cccc([N+](=O)[O-])c3)c(Cl)c21 [Compound 310, 5-Chloro-1,2-dihydro-2,2,4-trimethyl-6-(3-nitrophenyl)quinoline]	70	< 20	
CC1=CC(C)(C)Nc2c(F)cc(-c3cccc([N+](=O)[O-])c3)cc21 [Compound 291, 8-Fluoro-1,2-dihydro-2,2,4-trimethyl-6-(3-nitrophenyl)quinoline]	79	< 20	
CC1CC(C)(C)Nc2ccc(-c3cc(F)cc(C#N)c3)cc21 (racemic) [Compound 455, (R/S)-6-(3-Cyano-5-fluorophenyl)-1,2,3,4-Tetrahydro-2,2,4-trimethylquinoline]	76	< 20	
CC1=CC(C)(C)Nc2ccc(-c3cc(F)cc(C#N)c3)cc21 [Compound 271, 6-(3-Cyano-5-fluorophenyl)-1,2-dihydro-2,2,4-trimethylquinoline]			PR Agonist CV-1 Cells Efficacy (%) (human PR-B [2]; cv-1 cells): na (key: na = not active (i.e. efficacy of <20 and potency of >10,000))
CC1(C)Nc2ccc3c(c2C(=O)C1(C)C)C(c1ccc(Cl)cc1)Oc1ccccc1-3 (racemic) [Compound 379, (R/S)-5-(4-Chlorophenyl)-1,2,3,4-tetrahydro-2,2,3,3-tetramethyl-5H-chromeno[3,4-f]-4-quinolinone]	87	< 20	
CCCCC1Oc2ccccc2-c2ccc3c(c21)C(C)C(O)(CCCC)C(C)(C)N3 (racemic) [Compound 385, (R/S)-3,5-Dibutyl-1,2,3,4-tetrahydro-3-hydroxy-2,2,4-trimethyl-5H-chromeno[3,4-f]quinoline]	45	27	
CC1=CC(C)(C)Nc2ccc(-c3csc(C#N)c3)cc21 [Compound 452, 6-(5-Cyano-3-thienyl)-1,2-dihydro-2,2,4-trimethylquinoline]	70	119	
CC1=CC(C)(C)Nc2ccc(-c3nn(C)cc3Br)cc21 [Compound 104, 6-(4-Bromo-1-methylpyrazol-3-yl)-1,2-dihydro-2,2,4-trimethylquinoline]	71	39	
CC1C(=O)C(C)(C)Nc2ccc(-c3cc(F)cc(C#N)c3)cc21 (stereo not shown) [Compound 286, 6-(3-Cyano-5-fluorophenyl)-1,2-dihydro-2,2,4-trimethyl-3-quinolone]	84	< 20	
CC1(C)C=Cc2c(ccc3c2c(=O)oc2ccc(Cl)cc23)N1 [Compound 313, 9-Chloro-1,2-dihydro-2,2-dimethyl-5-coumarino[3,4-f]quinoline]			PR Antagonist CV-1 Cells Efficacy (%) (human PR-B [1]; CV-1 cells, percent maximal inhibition, progesterone at its EC50): 94%; PR Agonist CV-1 Cells Efficacy (%) (human PR-B [2]; CV-1 cells, percent maximal response relative to reference agonist progesterone): 26%
CC(=O)[C@H]1CC[C@H]2[C@@H]3CCC4=CC(=O)CC[C@]4(C)[C@H]3CC[C@]12C [Prog, progesterone, reference compound]	< 20	100	
CC1C(=O)C(C)(C)Nc2ccc3c(c21)/C(=C/c1cccc(F)c1)Oc1ccccc1-3 (racemic) [Compound 389, (Z)-(R/S)-5-(3-Fluorobenzylidene)-1,2,3,4-tetrahydro-2,2,4-trimethyl-5H-chromeno[3,4-f]-3-quinolinone]	< 20	133	
CC1=CC(C)(C)Nc2ccc3c(c21)/C(=C/c1ccc(F)cc1)Oc1ccccc1-3 [Compound 221, (Z)-5-(4-Fluorobenzylidene)-1,2-dihydro-2,2,4-trimethyl-5H-chromeno[3,4-f]quinoline]	< 20	105	
CCCO[C@@H]1[C@@H](C)c2c(ccc3c2[C@H](c2ccc(Cl)cc2)Oc2ccccc2-3)NC1(C)C (relative stereo) [Compound 400, (R/S-3l,4u,5u)-5-(4-Chlorophenyl)-1,2,3,4-tetrahydro-3-propyloxy-2,2,4-trimethyl-5H-chromeno[3,4-f]quinoline]	68	< 20	
CC1=CC(C)(C)Nc2ccc(-c3cccc(Cl)c3Cl)cc21 [Compound 109, 6-(2,3-Dichlorophenyl)-1,2-dihydro-2,2,4-trimethylquinoline]	87	< 20	
CC1=CC(C)(C)Nc2ccc3c(c21)/C(=C/c1ccccc1)Oc1ccccc1-3 [Compound 220, (Z)-5-Benzylidene-1,2-dihydro-2,2,4-trimethyl-5H-chromeno[3,4-f]quinoline]	< 20	147	
CC1=CC(C)(C)Nc2ccc3c(c21)/C(=C/c1ccccc1F)Oc1ccccc1-3 [Compound 228, (Z)-5-(2-Fluorobenzylidene)-1,2-dihydro-2,2,4-trimethyl-5H-chromeno[3,4-f]quinoline]	< 20	114	
CC1(C)C=Cc2c(ccc3c2/C(=C/c2ccccc2)Oc2ccc(Cl)cc2-3)N1 [Compound 368, (Z)-5-Benzylidene-9-chloro-1,2-dihydro-2,2-dimethyl-5H-chromeno[3,4-f]quinoline]	< 20	183	
CC1=CC(C)(C)Nc2ccc3c(c21)/C(=C/c1ccccc1C)Oc1ccc(F)cc1-3 [Compound 374, (Z)-9-Fluoro-1,2-dihydro-2,2,4-trimethyl-5-(2-methylbenzylidene)-5H-chromeno[3,4-f]quinoline]	< 20	231	
CC1=CC(C)(C)Nc2cc3c(cc21)c(C(F)(F)F)cc(=O)n3C [Compound 261, 1,2-Dihydro-2,2,4,9-tetramethyl-6-trifluoromethyl-8-pyridono[5,6-g]quinoline]			effect on testosterone-mediated increases in the weights of VP and SV (AR): exhibited AR antagonist activity by suppressing the testosterone-mediated increases in the weights of the VP and SV
CC1=CC(C)(C)Nc2ccc3c(c21)C(C)Oc1ccc(Cl)cc1-3 (racemic) [Compound 332, (R/S)-9-Chloro-1,2-dihydro-2,2,4,5-tetramethyl-5H-chromeno[3,4-f]quinoline]	< 20	138	
CC1=CC(C)(C)Nc2cc(C)c3c(c21)/C(=C/c1ccccc1)Oc1ccc(F)cc1-3 [Compound 377, (Z)-5-Benzylidene-9-fluoro-1,2-dihydro-2,2,4,11-tetramethyl-5H-chromeno[3,4-f]quinoline]	< 20	101	
CC1=CC(C)(C)Nc2ccc(-n3cnc(Cl)c3Cl)cc21 [Compound 103, 6-(4,5-Dichloroimidazol-1-yl)-1,2-dihydro-2,2,4-trimethylquinoline]	91	< 20	
CC1=CC(C)(C)Nc2ccc3c(c21)COc1c(Cl)cccc1-3 [Compound 331, (R/S)-7-Chloro-1,2-dihydro-2,2,4-trimethyl-5H-chromeno[3,4-f]quinoline]	88	< 20	

— EP1382597A2, “Steroid receptor modulator compounds and methods” (LIGAND PHARMACEUTICALS, INC., priority 1994, dated 1996)
